According to ChEMBL document CHEMBL5724806, “Unraveling interindividual differences and functional consequences of gut microbial metabolism of immunosuppressants” (2024):

Legend:
Type in all cases: ADME
[1] = (§1) The drug is tested on Clostridium scindens strain: DSM5676 for biotransformation under anaerobic condition. The drug concentrations were measured over 6 timepoints collected between 0 and 12 hours of incubation by liquid-chromatography-coupled mass spectrometry (LC–MS); set-up: dose 5 uM, timepoint 0, 1.5, 3, 6, 9, 12 hours; details: 5 µM
[2] = The drug is tested on Lactobacillus ruminis strain: ATCC25644 for biotransformation under anaerobic condition. The drug concentrations were measured over 6 timepoints collected between 0 and 12 hours of incubation by liquid-chromatography-coupled mass spectrometry (LC–MS); set-up: dose 5 uM, timepoint 0, 1.5, 3, 6, 9, 12 hours; details: ligilactobacillus ruminis, 5 µM
[3] = The drug is tested on Alloscardovia omnicolens strain: DSM21503 for biotransformation under anaerobic condition. The drug concentrations were measured over 6 timepoints collected between 0 and 12 hours of incubation by liquid-chromatography-coupled mass spectrometry (LC–MS); set-up: dose 5 uM, timepoint 0, 1.5, 3, 6, 9, 12 hours; details: 5 µM
[4] = The drug is tested on Bacteroides fragilis strain: DSM2151 for biotransformation under anaerobic condition. The drug concentrations were measured over 6 timepoints collected between 0 and 12 hours of incubation by liquid-chromatography-coupled mass spectrometry (LC–MS); set-up: dose 5 uM, timepoint 0, 1.5, 3, 6, 9, 12 hours; details: 5 µM
[5] = as §1, with “the gut metagenome community of A-01 with ENA study accession number: PRJEB31790” for “Clostridium scindens strain: DSM5676”, “7” for “6”; set-up: dose 5 uM, timepoint 0, 0.75, 1.5, 3, 6, 9, 12 hours; details: 5 µM
[6] = (§2) The drug is tested on Capnocytophaga ochracea strain: DSM7271 for biotransformation under microaerobic condition. The drug concentrations were measured over 6 timepoints collected between 0 and 12 hours of incubation by liquid-chromatography-coupled mass spectrometry (LC–MS); set-up: dose 5 uM, timepoint 0, 1.5, 3, 6, 9, 12 hours; details: 5 µM
[7] = as §1, with “the gut metagenome community of P-02 with ENA study accession number: PRJEB31790” for “Clostridium scindens strain: DSM5676”, “7” for “6”; set-up: dose 5 uM, timepoint 0, 0.75, 1.5, 3, 6, 9, 12 hours; details: 5 µM
[8] = as §2, with “the gut metagenome community of A-04 with ENA study accession number: PRJEB31790” for “Capnocytophaga ochracea strain: DSM7271”, “7” for “6”; set-up: dose 5 uM, timepoint 0, 0.75, 1.5, 3, 6, 9, 12 hours; details: 5 µM
[9] = as §2, with “the gut metagenome community of A-07 with ENA study accession number: PRJEB31790” for “Capnocytophaga ochracea strain: DSM7271”, “7” for “6”; set-up: dose 5 uM, timepoint 0, 0.75, 1.5, 3, 6, 9, 12 hours; details: 5 µM
[10] = as §2, with “the gut metagenome community of P-02 with ENA study accession number: PRJEB31790” for “Capnocytophaga ochracea strain: DSM7271”, “7” for “6”; set-up: dose 5 uM, timepoint 0, 0.75, 1.5, 3, 6, 9, 12 hours; details: 5 µM
[11] = The drug is tested on Lactobacillus ruminis strain: ATCC25644 for biotransformation under microaerobic condition. The drug concentrations were measured over 6 timepoints collected between 0 and 12 hours of incubation by liquid-chromatography-coupled mass spectrometry (LC–MS); set-up: dose 5 uM, timepoint 0, 1.5, 3, 6, 9, 12 hours; details: ligilactobacillus ruminis, 5 µM
[12] = as §2, with “the gut metagenome community of T-05 with ENA study accession number: PRJEB31790” for “Capnocytophaga ochracea strain: DSM7271”, “7” for “6”; set-up: dose 5 uM, timepoint 0, 0.75, 1.5, 3, 6, 9, 12 hours; details: 5 µM
[13] = The drug is tested on Roseburia intestinalis strain: DSM14610 for biotransformation under anaerobic condition. The drug concentrations were measured over 6 timepoints collected between 0 and 12 hours of incubation by liquid-chromatography-coupled mass spectrometry (LC–MS); set-up: dose 5 uM, timepoint 0, 1.5, 3, 6, 9, 12 hours; details: 5 µM
[14] = The drug is tested on Enterococcus faecalis strain: ATCC29212 for biotransformation under microaerobic condition. The drug concentrations were measured over 6 timepoints collected between 0 and 12 hours of incubation by liquid-chromatography-coupled mass spectrometry (LC–MS); set-up: dose 5 uM, timepoint 0, 1.5, 3, 6, 9, 12 hours; details: 5 µM
[15] = as §1, with “the gut metagenome community of T-05 with ENA study accession number: PRJEB31790” for “Clostridium scindens strain: DSM5676”, “7” for “6”; set-up: dose 5 uM, timepoint 0, 0.75, 1.5, 3, 6, 9, 12 hours; details: 5 µM
[16] = as §1, with “the gut metagenome community of P-01 with ENA study accession number: PRJEB31790” for “Clostridium scindens strain: DSM5676”, “7” for “6”; set-up: dose 5 uM, timepoint 0, 0.75, 1.5, 3, 6, 9, 12 hours; details: 5 µM
[17] = The drug is tested on Actinomyces graevenitzii strain: DSM15540 for biotransformation under microaerobic condition. The drug concentrations were measured over 6 timepoints collected between 0 and 12 hours of incubation by liquid-chromatography-coupled mass spectrometry (LC–MS); set-up: dose 5 uM, timepoint 0, 1.5, 3, 6, 9, 12 hours; details: 5 µM
[18] = as §1, with “the gut metagenome community of A-05 with ENA study accession number: PRJEB31790” for “Clostridium scindens strain: DSM5676”, “7” for “6”; set-up: dose 5 uM, timepoint 0, 0.75, 1.5, 3, 6, 9, 12 hours; details: 5 µM
[19] = The drug is tested on Enterococcus faecalis strain: ATCC29212 for biotransformation under anaerobic condition. The drug concentrations were measured over 6 timepoints collected between 0 and 12 hours of incubation by liquid-chromatography-coupled mass spectrometry (LC–MS); set-up: dose 5 uM, timepoint 0, 1.5, 3, 6, 9, 12 hours; details: 5 µM
[20] = The drug is tested on Bacteroides uniformis strain: DSM6597 for biotransformation under anaerobic condition. The drug concentrations were measured over 6 timepoints collected between 0 and 12 hours of incubation by liquid-chromatography-coupled mass spectrometry (LC–MS); set-up: dose 5 uM, timepoint 0, 1.5, 3, 6, 9, 12 hours; details: 5 µM
[21] = The drug is tested on Streptococcus salivarius strain: DSM20560 for biotransformation under anaerobic condition. The drug concentrations were measured over 6 timepoints collected between 0 and 12 hours of incubation by liquid-chromatography-coupled mass spectrometry (LC–MS); set-up: dose 5 uM, timepoint 0, 1.5, 3, 6, 9, 12 hours; details: 5 µM
[22] = as §2, with “the gut metagenome community of A-10 with ENA study accession number: PRJEB31790” for “Capnocytophaga ochracea strain: DSM7271”, “7” for “6”; set-up: dose 5 uM, timepoint 0, 0.75, 1.5, 3, 6, 9, 12 hours; details: 5 µM
[23] = The drug is tested on Prevotella copri strain: DSM18205 for biotransformation under anaerobic condition. The drug concentrations were measured over 6 timepoints collected between 0 and 12 hours of incubation by liquid-chromatography-coupled mass spectrometry (LC–MS); set-up: dose 5 uM, timepoint 0, 1.5, 3, 6, 9, 12 hours; details: segatella copri, 5 µM
[24] = The drug is tested on Bacteroides thetaiotaomicron strain: DSM2079 for biotransformation under anaerobic condition. The drug concentrations were measured over 6 timepoints collected between 0 and 12 hours of incubation by liquid-chromatography-coupled mass spectrometry (LC–MS); set-up: dose 5 uM, timepoint 0, 1.5, 3, 6, 9, 12 hours; details: 5 µM
[25] = The drug is tested on Faecalibacterium prausnitzii strain: DSM17677 for biotransformation under anaerobic condition. The drug concentrations were measured over 6 timepoints collected between 0 and 12 hours of incubation by liquid-chromatography-coupled mass spectrometry (LC–MS); set-up: dose 5 uM, timepoint 0, 1.5, 3, 6, 9, 12 hours; details: faecalibacterium duncaniae, 5 µM
[26] = The drug is tested on Alloscardovia omnicolens strain: DSM21503 for biotransformation under microaerobic condition. The drug concentrations were measured over 6 timepoints collected between 0 and 12 hours of incubation by liquid-chromatography-coupled mass spectrometry (LC–MS); set-up: dose 5 uM, timepoint 0, 1.5, 3, 6, 9, 12 hours; details: 5 µM
[27] = The drug is tested on Dorea formicigenerans strain: DSM3992 for biotransformation under anaerobic condition. The drug concentrations were measured over 6 timepoints collected between 0 and 12 hours of incubation by liquid-chromatography-coupled mass spectrometry (LC–MS); set-up: dose 5 uM, timepoint 0, 1.5, 3, 6, 9, 12 hours; details: 5 µM
[28] = as §1, with “the gut metagenome community of A-04 with ENA study accession number: PRJEB31790” for “Clostridium scindens strain: DSM5676”, “7” for “6”; set-up: dose 5 uM, timepoint 0, 0.75, 1.5, 3, 6, 9, 12 hours; details: 5 µM
[29] = as §2, with “the gut metagenome community of A-09 with ENA study accession number: PRJEB31790” for “Capnocytophaga ochracea strain: DSM7271”, “7” for “6”; set-up: dose 5 uM, timepoint 0, 0.75, 1.5, 3, 6, 9, 12 hours; details: 5 µM
[30] = The drug is tested on Streptococcus mitis strain: DSM12643 for biotransformation under microaerobic condition. The drug concentrations were measured over 6 timepoints collected between 0 and 12 hours of incubation by liquid-chromatography-coupled mass spectrometry (LC–MS); set-up: dose 5 uM, timepoint 0, 1.5, 3, 6, 9, 12 hours; details: 5 µM

Row | Bacterial Biotransformation [1] | Bacterial Biotransformation [2] | Bacterial Biotransformation [3] | Bacterial Biotransformation [4] | Bacterial Biotransformation [5] | Bacterial Biotransformation [6] | Bacterial Biotransformation [7] | Bacterial Biotransformation [8] | Bacterial Biotransformation [9] | Bacterial Biotransformation [10] | Bacterial Biotransformation [11] | Bacterial Biotransformation [12] | Bacterial Biotransformation [13] | Bacterial Biotransformation [14] | Bacterial Biotransformation [15] | Bacterial Biotransformation [16] | Bacterial Biotransformation [17] | Bacterial Biotransformation [18] | Bacterial Biotransformation [19] | Bacterial Biotransformation [20] | SMILES | further results
1 | Compound metabolized | Compound NOT metabolized | Compound NOT metabolized | Compound NOT metabolized | Compound NOT metabolized | Compound NOT metabolized | Compound metabolized | Compound NOT metabolized | Compound metabolized | Compound NOT metabolized | Compound NOT metabolized | Compound NOT metabolized | Compound NOT metabolized | Compound NOT metabolized | Compound NOT metabolized | Compound NOT metabolized | Compound NOT metabolized | Compound NOT metabolized | Compound NOT metabolized | Compound NOT metabolized | C[C@@H]1C[C@H]2[C@@H]3CCC4=CC(=O)C=C[C@]4(C)[C@@]3(F)[C@@H](O)C[C@]2(C)[C@@]1(O)C(=O)CO [DEXAMETHASONE] | Bacterial Biotransformation [21]: Compound NOT metabolized; Bacterial Biotransformation [22]: Compound NOT metabolized; Bacterial Biotransformation [23]: Compound NOT metabolized; Bacterial Biotransformation [24]: Compound NOT metabolized; Bacterial Biotransformation [25]: Compound NOT metabolized; Bacterial Biotransformation [26]: Compound NOT metabolized; Bacterial Biotransformation [27]: Compound NOT metabolized; Bacterial Biotransformation [28]: Compound metabolized; Bacterial Biotransformation [29]: Compound metabolized; Bacterial Biotransformation [30]: Compound NOT metabolized
2 | Compound metabolized | Compound NOT metabolized | Compound NOT metabolized | Compound NOT metabolized | Compound metabolized | Compound NOT metabolized | Compound metabolized | Compound metabolized | Compound metabolized | Compound metabolized | Compound NOT metabolized | Compound metabolized | Compound NOT metabolized | Compound NOT metabolized | Compound metabolized | Compound metabolized | Compound NOT metabolized | Compound metabolized | Compound NOT metabolized | Compound NOT metabolized | C[C@]12CCC(=O)C=C1CC[C@@H]1[C@@H]2C(=O)C[C@@]2(C)[C@H]1CC[C@]2(O)C(=O)CO [CORTISONE] | Bacterial Biotransformation [21]: Compound NOT metabolized; Bacterial Biotransformation [22]: Compound metabolized; Bacterial Biotransformation [23]: Compound NOT metabolized; Bacterial Biotransformation [24]: Compound NOT metabolized; Bacterial Biotransformation [25]: Compound NOT metabolized; Bacterial Biotransformation [26]: Compound NOT metabolized; Bacterial Biotransformation [27]: Compound NOT metabolized; Bacterial Biotransformation [28]: Compound metabolized; Bacterial Biotransformation [29]: Compound metabolized; Bacterial Biotransformation [30]: Compound NOT metabolized
3 | Compound NOT metabolized | Compound NOT metabolized | Compound NOT metabolized | Compound NOT metabolized | Compound NOT metabolized | Compound NOT metabolized | Compound metabolized | Compound metabolized | Compound metabolized | Compound NOT metabolized | Compound NOT metabolized | Compound NOT metabolized | Compound NOT metabolized | Compound metabolized | Compound NOT metabolized | Compound metabolized | Compound NOT metabolized | Compound NOT metabolized | Compound NOT metabolized | Compound NOT metabolized | CNC(=C[N+](=O)[O-])NCCSCc1ccc(CN(C)C)o1 [RANITIDINE] | Bacterial Biotransformation [21]: Compound NOT metabolized; Bacterial Biotransformation [22]: Compound NOT metabolized; Bacterial Biotransformation [23]: Compound NOT metabolized; Bacterial Biotransformation [24]: Compound NOT metabolized; Bacterial Biotransformation [25]: Compound NOT metabolized; Bacterial Biotransformation [26]: Compound NOT metabolized; Bacterial Biotransformation [27]: Compound NOT metabolized; Bacterial Biotransformation [28]: Compound metabolized; Bacterial Biotransformation [29]: Compound metabolized; Bacterial Biotransformation [30]: Compound metabolized
